Experimental data taken from ChEMBL document CHEMBL3046307, “Synthesis and evaluation of 1-benzhydryl-sulfonyl-piperazine derivatives as inhibitors of MDA-MB-231 human breast cancer cell proliferation” (2007).

These molecules were tested on MDA-MB-231 (assay: Cytotoxicity against Homo sapiens (human) MDA-MB-231 cells assessed as inhibition of cell proliferation at 2 mM after 72 hr by MTS assay relative to control). Details: MDA-MB-231, 72 h.
Type: functional
For `CS(=O)(=O)N1CCN(C(c2ccccc2)c2ccccc2)CC1`, the inhibition at 2000 µM was 3.79%.
For `Cc1ccc(S(=O)(=O)N2CCN(C(c3ccccc3)c3ccccc3)CC2)cc1`, the inhibition at 2000 µM was 10%.
`O=S(=O)(c1ccc(Cl)cc1)N1CCN(C(c2ccccc2)c2ccccc2)CC1` gave an inhibition at 2000 µM of 1%.
In the case of `CC(C)(C)c1ccc(S(=O)(=O)N2CCN(C(c3ccccc3)c3ccccc3)CC2)cc1`, the inhibition at 2000 µM is reported as 28.6%.
`Cc1noc(C)c1S(=O)(=O)N1CCN(C(c2ccccc2)c2ccccc2)CC1` was tested, and the inhibition at 2000 µM was 20.6%.
